In brackets after ≈: the same amount, converted by molar mass. Activity calls are given as the source filed them. The rule behind the calls is not given here.
Tests used:
[1] = Antioxidant activity assessed as DPPH radical scavenging activity incubated for 20 mins in dark conditions; format: functional
[2] = tested on: Neuron; assay: Neuroprotective activity in Sprague-Dawley rat cortical neurons assessed as reduction in glutamate-induced cell death preincubated for 1 hr followed by glutamate stimulation and measured after 24 hrs by MTS assay; format: functional, tissue-based; settings: time 25.0 hrs
[3] = Stability of the compound in DMSO assessed as formation of ortho-quinone intermediate in presence of DPPH measured after 20 mins by NMR analysis; format: physicochemical
[4] = Stability of the compound in DMSO assessed as formation of ortho-quinone intermediate in presence of DPPH measured by mass spectrometry; format: physicochemical
[5] = tested on: Neuron; assay: Neuroprotective activity in Sprague-Dawley rat cortical neurons assessed as reduction in glutamate-induced reactive oxygen species level incubated for 1 hr by DCFDA fluorescence-based microplate reader relative to control; format: functional, tissue-based

O=C1O[C@H]([C@@H](O)CO)C(O)=C1O [ASCORBIC ACID]
EC50 [1]: 0.16 mg/L (≈ 0.908 µM)

COc1cc(-c2oc3ccccc3c(=O)c2F)cc(OC)c1OC
EC50 [1]: 37.14 mg/L (≈ 112 µM)

O=c1c(F)c(-c2cc(O)c(O)c(O)c2)oc2ccccc12
Activity [2]: Active | Stabilty [3]: Unstable | EC50 [1]: 0.24 mg/L (≈ 0.833 µM) | Stabilty [4]: Unstable | Activity [5]: Active

COc1cc(-c2cc(=O)c3ccccc3o2)cc(OC)c1OC
EC50 [1]: 71.66 mg/L (≈ 229 µM)

O=c1cc(-c2cc(O)c(O)c(O)c2)oc2ccccc12
Activity [2]: Active | EC50 [1]: 0.33 mg/L (≈ 1.22 µM)

C[C@]12N[C@H](Cc3ccccc31)c1ccccc12
Activity [2]: Active

From ChEMBL document CHEMBL4680300, “Synthesis, biological evaluation, and NMR studies of 3-fluorinated derivatives of 3',4',5'-trihydroxyflavone and 3',4',5'-trimethoxyflavone” (Bioorg Med Chem Lett, 2021)
